How the values were obtained:
VCaP cells = assay: Cytotoxicity assessment (Cell-titer-glo cell viability), VCaP; conditions: read-out: VCaP (CC50); VCaP cells, 6 days of treatment, Cell-titer-glo, vs DMSO
Description: In order to evaluate the androgen receptor (AR) cytotoxicity of the compounds according to the present invention, the following experiment was conducted. Specifically, 1.5×10^3 (LNCaP) or 4×10^3 (VCaP, 22RV1), respectively, of LNCaP, VCaP, and 22RV1 cells were injected into each well of a 96-well plate. The next day, each well was treated with the compound at a final concentration of 3 nM, 10 nM, 30 nM, 100 nM, 300 nM, 1 μM, 3 μM, and 10 μM. […] After 6 days of treatment, Cell-titer-glo (promega) was treated and reacted for 10 minutes, and cell viability was measured with a multimode plate reader (PerkinElmer, Inc.), and the change was quantified compared to when DMSO was treated.

Androgen receptor (AR) = biological target: T1, Androgen receptor (AR) (Homo sapiens, UniProt P10275, T878A); assay: Assessment of AR proteolytic activity (Western blotting of LNCap cell lysates); assay type: cell-based; conditions: 24 hours of treatment, Western blotting quantified with Image J
T1 construct: 5.5×10^5 LNCap cells were injected into each well of a 6-well plate; endogenous in cells; host or cells: LNCaP
T1 sequence (P10275 1-920 T878A): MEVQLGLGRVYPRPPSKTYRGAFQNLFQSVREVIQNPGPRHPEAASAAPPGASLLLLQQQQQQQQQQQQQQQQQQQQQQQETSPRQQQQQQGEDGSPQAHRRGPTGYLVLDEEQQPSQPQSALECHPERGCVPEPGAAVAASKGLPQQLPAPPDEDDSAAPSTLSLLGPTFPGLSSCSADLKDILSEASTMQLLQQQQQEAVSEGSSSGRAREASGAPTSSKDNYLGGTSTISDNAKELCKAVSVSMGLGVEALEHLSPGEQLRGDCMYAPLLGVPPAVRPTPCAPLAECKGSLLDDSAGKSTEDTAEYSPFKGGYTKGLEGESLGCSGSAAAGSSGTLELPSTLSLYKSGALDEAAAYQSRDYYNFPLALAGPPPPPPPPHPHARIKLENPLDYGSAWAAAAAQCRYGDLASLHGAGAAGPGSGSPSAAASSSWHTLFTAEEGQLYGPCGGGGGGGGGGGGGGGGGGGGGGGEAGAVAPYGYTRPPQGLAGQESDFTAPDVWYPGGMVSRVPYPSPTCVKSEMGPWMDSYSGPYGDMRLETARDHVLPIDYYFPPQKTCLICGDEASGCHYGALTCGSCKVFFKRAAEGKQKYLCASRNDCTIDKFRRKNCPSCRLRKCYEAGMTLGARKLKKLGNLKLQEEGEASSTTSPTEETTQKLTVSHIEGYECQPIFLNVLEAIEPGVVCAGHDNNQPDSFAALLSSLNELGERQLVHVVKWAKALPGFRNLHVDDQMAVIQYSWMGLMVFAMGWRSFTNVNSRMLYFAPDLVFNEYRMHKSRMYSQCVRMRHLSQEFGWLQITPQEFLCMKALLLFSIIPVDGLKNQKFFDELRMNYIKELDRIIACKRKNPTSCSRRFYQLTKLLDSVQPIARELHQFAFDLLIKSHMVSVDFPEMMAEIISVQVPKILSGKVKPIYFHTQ
Description: Assessment of AR Proteolytic Activity
Androgen receptor (AR) proteolytic activity of the compound according to the present invention was evaluated as follows: Specifically, 5.5×10^5 LNCap cells were injected into each well of a 6-well plate. […] After 24 hours of treatment, cells were collected and lysed using RIPA Lysis buffer (50 mM Tris-HCl, pH7.5, 150 mM NaCl, 1% Triton X-100, 2 mM EDTA, 0.1% SDS, 0.5% sodium deoxycholate and protease inhibitor cocktail) to make cell lysates. Western blotting was performed, and the results were quantified using Image J program.

Compound	CC50 (VCaP cells) [nM]	Degradation (1 μM treated in LNCaP, % AR remaining) (Androgen receptor (AR)) [%]
CC1(C)C(NC(=O)c2ccc(C#CC3CCN(CC4CCN(C(=O)C5CCN(c6ccc7nnn(C8CCC(=O)NC8=O)c(=O)c7c6)CC5)CC4)CC3)nc2)C(C)(C)C1Oc1ccc(C#N)c(Cl)c1 (stereo not shown) [Example 130, N-((1r,3r)-3-(3-chloro-4-cyanophenoxy)-2,2,4,4-tetramethylcyclobutyl)-6-((1-((1-(1-(3-(2,6-dioxopiperidin-3-yl)-4-oxo-3,4-dihydrobenzo[d][1,2,3]triazin-6-yl)piperidine-4-carbonyl)piperidin-4-yl)methyl)piperidin-4-yl)ethynyl)nicotinamide]	17	
CC1(C)C(NC(=O)c2ccc(N3CCC(CN4CCN(c5ccc6nnn(C7CCC(=O)NC7=O)c(=O)c6c5)CC4)CC3)nc2)C(C)(C)C1Oc1ccc(C#N)c(Cl)c1 (stereo not shown) [Example 162, N-((1r,3r)-3-(3-chloro-4-cyanophenoxy)-2,2,4,4-tetramethylcyclobutyl)-6-(4-((4-(3-(2,6-dioxopiperidin-3-yl)-4-oxo-3,4-dihydrobenzo[d][1,2,3]triazin-6-yl)piperazin-1-yl)methyl)piperidin-1-yl)nicotinamide]		30
CC1(C)C(NC(=O)c2ccc(N3CCC(CN4CCN(c5ccc6nnn(C7CCC(=O)NC7=O)c(=O)c6c5)CC4)CC3)cc2)C(C)(C)C1Oc1ccc(C#N)c(Cl)c1 (stereo not shown) [Example 166, N-((1r,3r)-3-(3-chloro-4-cyanophenoxy)-2,2,4,4-tetramethylcyclobutyl)-4-(4-((4-(3-(2,6-dioxopiperidin-3-yl)-4-oxo-3,4-dihydrobenzo[d][1,2,3]triazin-6-yl)piperazin-1-yl)methyl)piperidin-1-yl)benzamide]		13
CC1(C)[C@H](NC(=O)c2ccc(C#CC3CCN(CC4CCN(c5ccc6c(=O)n(C7CCC(=O)NC7=O)nnc6c5)CC4)CC3)nc2)C(C)(C)[C@H]1Oc1ccc(C#N)c(Cl)c1 (stereo partly shown) [Example 195, N-((1r,3r)-3-(3-chloro-4-cyanophenoxy)-2,2,4,4-tetramethylcyclobutyl)-6-((1-((1-(3-(2,6-dioxopiperidin-3-yl)-4-oxo-3,4-dihydrobenzo[d][1,2,3]triazin-7-yl)piperidin-4-yl)methyl)piperidin-4-yl)ethynyl)nicotinamide]		3
CC1(C)[C@H](NC(=O)c2ccc(N3CCC(CN4CCC5(CC4)CN(c4ccc6nnn(C7CCC(=O)NC7=O)c(=O)c6c4)C5)CC3)nc2)C(C)(C)[C@H]1Oc1ccc(C#N)c(Cl)c1 (stereo partly shown) [Example 172, N-((1r,3r)-3-(3-chloro-4-cyanophenoxy)-2,2,4,4-tetramethylcyclobutyl)-6-(4-((2-(3-(2,6-dioxopiperidin-3-yl)-4-oxo-3,4-dihydrobenzo[d][1,2,3]triazin-6-yl)-2,7-diazaspiro[3.5]nonan-7-yl)methyl)piperidin-1-yl)nicotinamide]		7
N#Cc1ccc(O[C@H]2CC[C@H](NC(=O)c3ccc(N4CCC(CN5CC6(CCN(c7ccc8nnn(C9CCC(=O)NC9=O)c(=O)c8c7)CC6)C5)CC4)nc3)CC2)cc1Cl (stereo partly shown) [Example 168, N-((1r,4r)-4-(3-chloro-4-cyanophenoxy)cyclohexyl)-6-(4-((7-(3-(2,6-dioxopiperidin-3-yl)-4-oxo-3,4-dihydrobenzo[d][1,2,3]triazin-6-yl)-2,7-diazaspiro[3.5]nonan-2-yl)methyl)piperidin-1-yl)nicotinamide]		10
CC1(C)C(NC(=O)c2ccc(C#CCN3CC4(CCN(c5ccc6c(=O)n(C7CCC(=O)NC7=O)nnc6c5)CC4)C3)nc2)C(C)(C)C1Oc1ccc(C#N)c(Cl)c1 (stereo not shown) [Example 179, N-((1r,3r)-3-(3-chloro-4-cyanophenoxy)-2,2,4,4-tetramethylcyclobutyl)-6-(3-(7-(3-(2,6-dioxopiperidin-3-yl)-4-oxo-3,4-dihydrobenzo[d][1,2,3]triazin-7-yl)-2,7-diazaspiro[3.5]nonan-2-yl)prop-1-yn-1-yl)nicotinamide]		8
CC1(C)C(NC(=O)c2ccc(C#CCN3CCN(c4ccc5c(=O)n(C6CCC(=O)NC6=O)nnc5c4)CC3)nc2)C(C)(C)C1Oc1ccc(C#N)c(Cl)c1 (stereo not shown) [Example 177, N-((1r,3r)-3-(3-chloro-4-cyanophenoxy)-2,2,4,4-tetramethylcyclobutyl)-6-(3-(4-(3-(2,6-dioxopiperidin-3-yl)-4-oxo-3,4-dihydrobenzo[d][1,2,3]triazin-7-yl)piperazin-1-yl)prop-1-yn-1-yl)nicotinamide]		56
CC1(C)C(NC(=O)c2ccc(C#CC3CCN(CC4CN(c5ccc6c(=O)n(C7CCC(=O)NC7=O)nnc6c5)C4)CC3)nc2)C(C)(C)C1Oc1ccc(C#N)c(Cl)c1 (stereo not shown) [Example 183, N-((1r,3r)-3-(3-chloro-4-cyanophenoxy)-2,2,4,4-tetramethylcyclobutyl)-6-((1-((1-(3-(2,6-dioxopiperidin-3-yl)-4-oxo-3,4-dihydrobenzo[d][1,2,3]triazin-7-yl)azetidin-3-yl)methyl)piperidin-4-yl)ethynyl)nicotinamide]		7.5
CC1(C)[C@H](NC(=O)c2ccc(N3CCC(CCN4CCN(c5ccc6nnn(C7CCC(=O)NC7=O)c(=O)c6c5)CC4)CC3)nc2)C(C)(C)[C@H]1Oc1ccc(C#N)c(Cl)c1 (stereo partly shown) [Example 198, N-((1r,3r)-3-(3-chloro-4-cyanophenoxy)-2,2,4,4-tetramethylcyclobutyl)-6-(4-(2-(4-(3-(2,6-dioxopiperidin-3-yl)-4-oxo-3,4-dihydrobenzo[d][1,2,3]triazin-6-yl)piperazin-1-yl)ethyl)piperidin-1-yl)nicotinamide]		10
N#Cc1ccc(O[C@H]2CC[C@@H](NC(=O)c3ccc(N4CCC(CN5CC6(CCN(c7ccc8c(=O)n(C9CCC(=O)NC9=O)nnc8c7)CC6)C5)CC4)nc3)CC2)cc1Cl (stereo partly shown) [Example 167, N-((1r,4r)-4-(3-chloro-4-cyanophenoxy)cyclohexyl)-6-(4-((7-(3-(2,6-dioxopiperidin-3-yl)-4-oxo-3,4-dihydrobenzo[d][1,2,3]triazin-7-yl)-2,7-diazaspiro[3.5]nonan-2-yl)methyl)piperidin-1-yl)nicotinamide]		19
N#Cc1ccc(OC2CCC(NC(=O)c3ccc(N4CCC(CN5CCN(c6ccc7c(=O)n(C8CCC(=O)NC8=O)nnc7c6)CC5)CC4)nc3)CC2)cc1Cl (stereo not shown) [Example 164, N-((1r,4r)-4-(3-chloro-4-cyanophenoxy)cyclohexyl)-6-(4-((4-(3-(2,6-dioxopiperidin-3-yl)-4-oxo-3,4-dihydrobenzo[d][1,2,3]triazin-7-yl)piperazin-1-yl)methyl)piperidin-1-yl)nicotinamide]		13
CC1(C)C(NC(=O)c2ccc(C#CCN3CCC4(CC3)CN(c3ccc5c(=O)n(C6CCC(=O)NC6=O)nnc5c3)C4)nc2)C(C)(C)C1Oc1ccc(C#N)c(Cl)c1 (stereo not shown) [Example 181, N-((1r,3r)-3-(3-chloro-4-cyanophenoxy)-2,2,4,4-tetramethylcyclobutyl)-6-(3-(2-(3-(2,6-dioxopiperidin-3-yl)-4-oxo-3,4-dihydrobenzo[d][1,2,3]triazin-7-yl)-2,7-diazaspiro[3.5]nonan-7-yl)prop-1-yn-1-yl)nicotinamide]		18

Reference: patent US20240018123A1, “COMPOUND FOR INHIBITING OR DISINTEGRATING ANDROGEN RECEPTOR, AND PHARMACEUTICAL USE THEREOF” (KOREA RESEARCH INSTITUTE OF CHEMICAL TECHNOLOGY, priority 2020, published 2024)
